Test results from PubChem BioAssay (NCI).
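A five-concentration, 48-hour dose response in 96-well plates underlies each endpoint, interpolated linearly between surrounding concentrations. The concentration for 50% growth inhibition is given as GI50. TGI: concentration producing complete growth inhibition.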

Key:
Assay in all cases: NCI tumour cell line growth inhibition, 48 h
[1] = test system: HOP-62 NSCLC
[2] = test system: CCRF-CEM leukemia
[3] = test system: SF-539 CNS
[4] = test system: RPMI-8226 leukemia
[5] = test system: MDA-MB-435
[6] = test system: SK-MEL-28 melanoma
[7] = test system: LOX IMVI melanoma
[8] = test system: PC-3 prostate
[9] = test system: MDA-MB-231 breast
[10] = test system: SK-OV-3 ovarian
[11] = test system: OVCAR-3 ovarian
[12] = test system: RXF 393 renal
[13] = test system: SF-268 CNS
[14] = test system: UACC-257 melanoma
[15] = test system: HS 578T breast
[16] = test system: M14 melanoma
[17] = test system: HT29 colon
[18] = test system: SNB-19 CNS
[19] = test system: COLO 205 colon
[20] = test system: A549 NSCLC
[21] = test system: UO-31 renal
[22] = test system: CAKI-1 renal
[23] = test system: KM12 colon
[24] = test system: BT-549 breast
[25] = test system: EKVX NSCLC
[26] = test system: T-47D breast
[27] = test system: ACHN renal
[28] = test system: HOP-92 NSCLC
[29] = test system: IGROV1 ovarian
[30] = test system: MOLT-4 leukemia
[31] = test system: SR leukemia
[32] = test system: NCI-H226 lung
[33] = test system: UACC-62 melanoma
[34] = test system: NCI-H460 lung
[35] = test system: NCI-H23 lung
[36] = test system: MALME-3M melanoma
[37] = test system: DU-145 prostate
[38] = test system: OVCAR-4 ovarian
[39] = test system: HCC-2998 colon
[40] = test system: SK-MEL-5 melanoma
[41] = test system: 786-0 renal
[42] = test system: A498 renal
[43] = test system: HL-60(TB) leukemia
[44] = test system: MCF7 breast
[45] = test system: NCI-H522 lung
[46] = test system: HCT-116 colon
[47] = test system: SN12C renal
[48] = test system: K-562 leukemia
[49] = test system: MDA-MB-468 breast
[50] = test system: OVCAR-8 ovarian
[51] = test system: SK-MEL-2 melanoma
[52] = test system: OVCAR-5 ovarian
[53] = test system: SW-620 colon
[54] = test system: HCT-15 colon
[55] = test system: TK-10 renal
[56] = test system: U251 CNS
[57] = test system: SF-295 CNS

Compound: COc1cc(/C=C/C(=O)c2cnn(-c3cc(=O)[nH]c4ccc(C)cc34)c2C)cc(OC)c1OC
- GI50 [1]: 3.56 µM
- TGI [1]: 12.5 µM
- GI50 [2]: 2280 nM
- TGI [2]: 8.76 µM
- GI50 [3]: 2110 nM
- TGI [3]: 4.79 µM
- GI50 [4]: 2020 nM
- TGI [4]: 7.59 µM
- GI50 [5]: 3.02 µM
- TGI [5]: 12.1 µM
- GI50 [6]: 3.7 µM
- TGI [6]: 13.2 µM
- GI50 [7]: 1540 nM
- TGI [7]: 3.76 µM
- GI50 [8]: 6.04 µM
- TGI [8]: 26.8 µM
- GI50 [9]: 3.1 µM
- TGI [9]: 11.9 µM
- GI50 [10]: 3.91 µM
- TGI [10]: 13.4 µM
- GI50 [11]: 2790 nM
- TGI [11]: 7.95 µM
- GI50 [12]: 2090 nM
- TGI [12]: 5.13 µM
- GI50 [13]: 3.43 µM
- TGI [13]: 14.8 µM
- GI50 [14]: 4.85 µM
- TGI [14]: 20.4 µM
- GI50 [15]: 3.56 µM
- TGI [15]: > 100 µM
- GI50 [16]: 3.16 µM
- TGI [16]: 13.2 µM
- GI50 [17]: 3.07 µM
- TGI [17]: 10 µM
- GI50 [18]: 3.11 µM
- TGI [18]: 12 µM
- GI50 [19]: 2770 nM
- TGI [19]: 8.8 µM
- GI50 [20]: 3.17 µM
- TGI [20]: 11.2 µM
- GI50 [21]: 2980 nM
- TGI [21]: 13.1 µM
- GI50 [22]: 3.75 µM
- TGI [22]: 18.6 µM
- GI50 [23]: 3.24 µM
- TGI [23]: 10.6 µM
- GI50 [24]: 2430 nM
- TGI [24]: 8.55 µM
- GI50 [25]: 2840 nM
- TGI [25]: 12.2 µM
- GI50 [26]: 2570 nM
- TGI [26]: 16.2 µM
- GI50 [27]: 1720 nM
- TGI [27]: 3.79 µM
- GI50 [28]: 4.34 µM
- TGI [28]: 23.4 µM
- GI50 [29]: 2410 nM
- TGI [29]: 7.14 µM
- GI50 [30]: 2530 nM
- TGI [30]: 10.4 µM
- GI50 [31]: 1760 nM
- TGI [31]: 11.3 µM
- GI50 [32]: 2640 nM
- TGI [32]: 7.79 µM
- GI50 [33]: 2850 nM
- TGI [33]: 10.9 µM
- GI50 [34]: 1860 nM
- TGI [34]: 4.38 µM
- GI50 [35]: 1890 nM
- TGI [35]: 4.3 µM
- GI50 [36]: 3.89 µM
- TGI [36]: 16.7 µM
- GI50 [37]: 3.39 µM
- TGI [37]: 12.6 µM
- GI50 [38]: 3.85 µM
- TGI [38]: 48.8 µM
- GI50 [39]: 2980 nM
- TGI [39]: 9.14 µM
- GI50 [40]: 2390 nM
- TGI [40]: 7.34 µM
- GI50 [41]: 3.52 µM
- TGI [41]: 14.6 µM
- GI50 [42]: 18 µM
- TGI [42]: 35.9 µM
- GI50 [43]: 2290 nM
- TGI [43]: 11.3 µM
- GI50 [44]: 2700 nM
- TGI [44]: 11.4 µM
- GI50 [45]: 2650 nM
- TGI [45]: 8.02 µM
- GI50 [46]: 3.63 µM
- TGI [46]: 12.9 µM
- GI50 [47]: 2570 nM
- TGI [47]: 10.2 µM
- GI50 [48]: 2240 nM
- TGI [48]: > 100 µM
- GI50 [49]: 1580 nM
- TGI [49]: 3.63 µM
- GI50 [50]: 2000 nM
- TGI [50]: 4.63 µM
- GI50 [51]: 2900 nM
- TGI [51]: 11 µM
- GI50 [52]: 3.25 µM
- TGI [52]: 11.6 µM
- GI50 [53]: 3.06 µM
- TGI [53]: 10.5 µM
- GI50 [54]: 1920 nM
- TGI [54]: 5.01 µM
- GI50 [55]: 3.54 µM
- TGI [55]: 11.5 µM
- GI50 [56]: 2420 nM
- TGI [56]: 8.48 µM
- GI50 [57]: 3 µM
- TGI [57]: 11.1 µM
